In patent publication US11129820B2, “Ferroportin-inhibitor salts” (Vifor (International) AG, priority 2017, dated 2021):

Tests used:
ferroportin (Fpn) = molecular target: T1, ferroportin (Fpn) (Mus musculus, UniProt Q9JHI9); experiment: Ferroportin Ubiquitination and Degradation (J774, immunoprecipitation, Western blot); type: cell-based; design: key: +: comparable to hepcidin; −: no effect; +/−: intermediate effect; conditions: J774 cells, ca. 10-fold IC50 concentration, visual inspection of Western blots
T1 construct: endogenous in cells; host or cells: J774 mouse macrophage cell line (DSMZ, Cat. ACC170), induced with 200 uM Fe(III)-NTA
T1 sequence (Q9JHI9 1-570): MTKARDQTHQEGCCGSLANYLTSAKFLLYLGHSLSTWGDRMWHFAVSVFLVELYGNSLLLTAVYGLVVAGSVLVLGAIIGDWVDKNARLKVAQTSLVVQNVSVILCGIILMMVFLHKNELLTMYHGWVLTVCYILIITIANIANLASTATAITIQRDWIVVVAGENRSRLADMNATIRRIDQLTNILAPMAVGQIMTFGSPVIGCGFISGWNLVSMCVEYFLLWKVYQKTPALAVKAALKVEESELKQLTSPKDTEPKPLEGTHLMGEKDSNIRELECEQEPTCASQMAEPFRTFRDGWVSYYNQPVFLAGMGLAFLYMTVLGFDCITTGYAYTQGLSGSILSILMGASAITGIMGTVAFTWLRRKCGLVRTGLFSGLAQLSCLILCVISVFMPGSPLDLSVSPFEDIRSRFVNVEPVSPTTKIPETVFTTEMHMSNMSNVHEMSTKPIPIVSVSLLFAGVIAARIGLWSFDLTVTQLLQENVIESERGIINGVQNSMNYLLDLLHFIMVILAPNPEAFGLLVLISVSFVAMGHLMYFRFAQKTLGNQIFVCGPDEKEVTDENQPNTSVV
Procedure: Exposure of cells expressing ferroportin (Fpn) to hepcidin is known to trigger ubiquitination and subsequent internalization and degradation of Fpn (Qiao, 2012). The potential of Fpn inhibitors to induce Fpn ubiquitination and degradation is investigated with an immunoprecipitation assay using the J774 mouse macrophage cell line which expresses Fpn upon treatment with iron.
Cells are incubated with synthetic human hepcidin (Bachem, Cat. H-5926) or Fpn inhibitor compounds for 10 min or 120 min. Cells are washed and lysed with ice-cold lysis buffer (Pierce, Life Technoligies, Cat. 87787) including 1×HALT protease inhibitor cocktail (Life technologies, Cat. 78429) and 10 mM iodoacetamide (Sigma, Cat. 16125) to stabilize ubiquitinated proteins. Immunoprecipitation is done using the Pierce Classic IP Kit (Life Technologies, Cat. 26146) following the manufacturer's protocol. Briefly, 2 mg protein in 1.25 ml IP lysis buffer is incubated by mixing for 1 h at 4° C. with control agarose beads to pre-clear the lysate and reduce nonspecific signal. Unbound lysate is then incubated overnight with 12 μg per reaction of the affinity purified anti-Fpn antibody F308 that was raised against a GST fusion protein of mouse Fpn amino acids 224-308. Immune complexes are captured by pipetting 14 μl settled Pierce Protein A/G Plus Agarose beads (Life Technologies, Cat. 20423) per reaction and the slurry is incubated for 1.5 h at 4° C. with gentle end-over-end mixing. The beads are washed and immune complexes are eluted directly with 75 μl SDS NuPAGE LDS sample buffer (Life Technologies, Cat. NP0007) containing DTT (Life Technologies, Cat. NP0009).
After immunoprecipitation samples are analyzed by Western blotting using a rabbit anti-mouse MTP1 antiserum (Alpha Diagnostic International, Cat. MTP11-A) and a mouse anti-mono- and polyubiquitinylated conjugates monoclonal antibody (Enzo Lifesciences, Cat. BML-PW8810) for detection of ferroportin and ubiquitin, respectively. Mouse monoclonal anti-rabbit IgG light chain (Abcam, Cat. ab99697) and anti-mouse IgG H&L (Abcam, Cat. ab6789) HRP conjugates are used as secondary antibodies.

naïve WT C57BL/6 mice = experiment: Hypoferremia in naïve mice; type: in vivo, mouse; conditions: injection in WT naïve mice, maximal effect at 3-4 hours post treatment
Procedure: Injection of synthetic hepcidin in wild-type (WT) naïve mice results in a reduction of serum iron levels (40-50% from the vehicle control) with a maximal effect at 3-4 hours post treatment (Rivera, 2005; FIG. 12A).
Female C57BL/6 mice (Janvier, France) at age of 9 weeks are fed a standard diet (Harlan Provimi Kliba 3436) and treated per os (p.o.) with compounds or the corresponding amount of vehicle at a volume of 10 ml/kg body weight. Fpn inhibitors are formulated in 0.5% methylcellulose/water or 20% cremophor EL/water and dosed p.o. in mice at 10, 30 or 100 mg/kg body weight. Three hours later, mice are pre-terminally anesthetized in isoflurane chambers and blood is collected by retro-orbital bleeding. Mice are sacrificed by cervical dislocation and spleens, livers and duodena were harvested and used for biomarker analysis. All experiments are conducted in compliance with the license approved by the responsible veterinarian authorities. Serum is isolated by centrifugation of blood into gel-containing microtainers and serum iron is determined by the MULTIGENT Iron assay (Abbott Diagnostics, 6K95). Eight mice per group are used and one-way ANOVA with Bonferroni's multiple comparison test is performed to analyze the statistical differences between the experimental groups.
Table 6 Efficacy of Fpn inhibitors tested in the naïve mouse hypoferremia model. Serum iron reduction induced by selected ferroportin inhibitors dosed p.o. in naïve WT C57BL/6 mice at 10, 30 and 100 mg/kg. Relative serum iron reduction at 3 h after dosing was calculated by subtracting the average of serum iron values of animals dosed with the Fpn inhibitor from that of vehicle-treated animals. The difference in average serum iron values between vehicle and compound treated groups was then divided by the average of serum iron of the vehicle control group and listed as percentage.

Row | SMILES | Fpn Degradation (120 min.) (ferroportin (Fpn)) | Fpn Ubiquitination (10 min.) (ferroportin (Fpn)) | Reduction of serum iron levels from the vehicle control (naïve WT C57BL/6 mice)
1 | O=C(NCc1ncccc1F)c1coc(CCNCc2nc3ccccc3[nH]2)n1 [Example Compound No. 126] | + | +/− | 
2 | CC[C@H](C)[C@@H]1NC(=O)[C@@H](NC(=O)[C@@H](NC(=O)[C@@H]2CCCN2C(=O)[C@H](Cc2ccccc2)NC(=O)[C@H](Cc2c[nH]cn2)NC(=O)[C@@H](NC(=O)[C@@H](N)CC(=O)O)[C@@H](C)O)[C@@H](C)CC)CSSC[C@@H](C(=O)N[C@@H](CCCCN)C(=O)N[C@H](C(=O)O)[C@@H](C)O)NC(=O)[C@@H]2CSSC[C@@H]3NC(=O)[C@@H]4CSSC[C@H](NC(=O)[C@H](Cc5ccccc5)NC1=O)C(=O)N[C@@H](CSSC[C@H](NC(=O)[C@H](CCCCN)NC(=O)[C@H](CO)NC(=O)[C@H](CCCNC(=N)N)NC(=O)[C@H](Cc1c[nH]cn1)NC3=O)C(=O)NCC(=O)N[C@@H](CCSC)C(=O)N2)C(=O)NCC(=O)N4 [hepcidin, reference compound] | + | + | 40-50%
